Ki and modulation data for 13 compounds are collected here from article PMC4657098, “A Review of the Updated Pharmacophore for the Alpha 5 GABA(A) Benzodiazepine Receptor Model” (International Journal of Medicinal Chemistry, 2015).

In assay [1] the target is T1, α6β3γ2 GABAA/BzR (Homo sapiens, UniProt P18507+Q16445). Details: expressed in transfected cells; host or cells: LTK cells (given for XLi-093 only). The settings on record: read-out: Affinity Ki α6; cited from earlier work.
In assay [2] the target is T2, α2β3γ2 GABAA/BzR (Homo sapiens, UniProt P18507+P47869). Set-up: expressed in transfected cells; host or cells: LTK cells (given for XLi-093 only). The following applies: read-out: Affinity Ki α2; cited from earlier work.
Assay [3] concerns the target T3, α3β3γ2 GABAA/BzR (Homo sapiens, UniProt P18507+P34903). Details: expressed in transfected cells; host or cells: LTK cells (given for XLi-093 only). The settings on record: read-out: Affinity Ki α3; cited from earlier work.
Assay [4] addresses T4, α4β3γ2 GABAA/BzR (Homo sapiens, UniProt P18507+P48169).
T4 construct: expressed in transfected cells; host or cells: LTK cells (given for XLi-093 only)
The following applies: read-out: Affinity Ki α4; cited from earlier work.

The target of assay [5] is T5, α5β3γ2 GABAA/BzR (Homo sapiens, UniProt P18507+P31644). Set-up: expressed in transfected cells; host or cells: LTK cells (given for XLi-093 only). The following applies: read-out: Affinity Ki α5; cited from earlier work.
Assay [6] deals with Bz BS of GABA(A) receptors. The following applies: cited from earlier work.
Assay [7] concerns the target T3, α3β3γ2 GABAA/BzR. As to the kind of experiment: Competition binding to HEK cell membranes, α3β3γ2. Set-up: expressed in transfected cells. The following applies: read-out: Ki α3.
Assay [8] has as its target T5, α5β3γ2 GABAA/BzR. Briefly: Competition binding to HEK cell membranes, α5β3γ2. Details: expressed in transfected cells. The settings on record: read-out: Ki α5.
Assay [9] has as its target T2, α2β3γ2 GABAA/BzR. Briefly: Competition binding to HEK cell membranes, α2β3γ2. Set-up: expressed in transfected cells. The following applies: read-out: Ki α2.
Assay [10] concerns the target T6, α1β3γ2 GABAA/BzR (Homo sapiens, UniProt P14867+P18507). Details: expressed in transfected cells; host or cells: LTK cells (given for XLi-093 only). The following applies: read-out: Affinity Ki α1; cited from earlier work.
Assay [11] has as its target T6, α1β3γ2 GABAA/BzR. Briefly: Competition binding to HEK cell membranes, α1β3γ2. Set-up: expressed in transfected cells.
The target in assay [12] is T1, α6β3γ2 GABAA/BzR. As to the kind of experiment: Competition binding to HEK cell membranes, α6β3γ2. Details: expressed in transfected cells. The following applies: read-out: Ki α6.

Each structure is given as a SMILES string. Like-named read-outs stand apart in the source and are kept apart here.

The term Ki denotes a measure of affinity in units of concentration, obtained from inhibition or displacement. Take `O=C(OCC(F)(F)F)c1cc2c(cn1)[nH]c1ccc(-c3ccccc3)cc12` [38(WYB29-2)]: the Ki was 2000 nM in [1]; 137 nM in assay [2]; 125 nM in assay [3]; 2000 nM in assay [4]; 299 nM in assay [5].

As to `COC(=O)c1cc2c(cn1)[nH]c1ccccc12` [-CCM, methyl beta-carboline-3-carboxylate], in assay [6] (Supplement Table 1), the modulation entry is “inverse agonist”.

`Cc1ncc2n1-c1ccc(Cl)cc1C(c1ccccc1F)=NC2` [midazolam]: the modulation result in assay [6] (Supplement Table 1) was “agonist”.

`CC(C)(C)OC(=O)c1cc2c(cn1)[nH]c1ccc(-c3ccco3)cc12` [WYS13]: the Ki in [7] is 27.5 nM; in [8] it was 163 nM; in assay [1], 5000 nM; in assay [9], 13 nM; in assay [10], 2.4 nM; in [2] it was 13 nM. Moreover, the Ki was 2.44 nM in assay [11] (read-out: Ki α1), 27.5 nM in assay [3], 5000 nM in assay [12] and 163 nM in assay [5].

For the compound `O=C(OCC(F)(F)F)c1cc2c(cn1)[nH]c1ccc(-c3ccco3)cc12` [34(WYB27-1)], the Ki in assay [1] is 2000 nM; in [10], 26 nM; in assay [2], 143 nM; in assay [3], 117 nM; in [4], 3000 nM; in assay [5], 127 nM.

`CC(C)(C)OC(=O)c1cc2c(cn1)[nH]c1ccc(C#CC#Cc3ccc4[nH]c5cnc(C(=O)OC(C)(C)C)cc5c4c3)cc12` [43(WY-S-6)]: the Ki in assay [1] is 5000 nM; in [10] it was 120 nM; in [2] it was 1060 nM; in assay [11] (binding to α1 subtypes), 120 nM; in assay [3] it was 3940 nM; in assay [4], 5000 nM. Besides, the Ki in [5] was 5000 nM.

As to `O=C(OC(C(F)(F)F)C(F)(F)F)c1cc2c(cn1)[nH]c1ccc(I)cc12` [32(WY-B-08)], the Ki in assay [1] is 3000 nM; in assay [10], 78 nM; in assay [2], 301 nM; in [3] it was 131 nM; in assay [4], 3000 nM; in assay [5], 681 nM.

On to `Cc1nnc2n1-c1ccc(Cl)cc1C(c1ccccc1Cl)=NC2` [triazolam], for which, in assay [6] (Supplement Table 1), the modulation entry is on record as “agonist”.

As to `Cc1nnc2ccc(-c3cccc(C(F)(F)F)c3)nn12` [CL-218,872], the modulation entry in [6] (Supplement Table 1) is recorded as “partial agonist”.

For `CN1C(=O)CN=C(c2ccccc2F)c2cc([N+](=O)[O-])ccc21` [FLUNITRAZEPAM, flunitrazepam], the modulation result in assay [6] is “agonist”.

With `CCOC(=O)c1cc2c(cn1)[nH]c1ccc(I)cc12` [31(iodo-βCCE)], the Ki in assay [1] is 1000 nM; in [10], 4.8 nM; in assay [2], 31 nM; in assay [3], 34 nM; in assay [4], 1000 nM; in assay [5] it was 286 nM.

Turning to `CCc1c(C(=O)OC)ncc2[nH]c3cc(OC)c(OC)cc3c12` [DMCM, reference compound], the Ki in assay [7] was determined as 4 nM; in assay [8], 1.04 nM; in [9], 8.29 nM; in [11] (read-out: Ki α1), 5.69 nM; in [12] it was 134 nM. Moreover, in [6], the modulation result is “inverse agonist”.

Take `Cc1ccc(-c2nc3ccc(C)cn3c2CC(=O)N(C)C)cc1` [zolpidem]: the modulation result in [6] (Supplement Table 1) is reported as “agonist”.
